Experimental data taken from patent publication US11992490B2, “Use of JAK1 inhibitors for the treatment of cutaneous lupus erythematosus and Lichen planus (LP)” (Incyte Corporation, priority 2019, dated 2024).
Values belong to the molecule of their own block, whether it stands above or below them.

Assays:
[1] = tested on: patients with systemic lupus erythematosus; conditions: cited from earlier work
TREX1−/− mice = experiment: Topical treatment of CLE-like lesions in UV-stimulated lupus-prone TREX1-/- mice; type: in vivo, mouse; conditions: 1% topical, seven days
From the text: TREX1^−/− mice (generated on C57BL/6J background; Cancer Research Institute, London, UK) were bred and maintained under specific pathogen-free conditions at the animal core facility of UKB Bonn (HET, Bonn, Germany). TREX1^−/− mice (n=8) were back-shaved and treated with 0.2% DNFB (1-Fluor-2,4-dinitrobenzol, Sigma Aldrich). 4 days later, UV-irradiation on 3 sequential days started with 450 mJ/cm^2 UVB for 115 seconds per day using UV801KL (Waldmann, Villingen-Schwenningen, Germany). For 7 days 1% INCB039110 or vehicle solved in DMSO and olive oil (50 μL per mouse) were applied topically. Every day photos of mice were taken and every 2 days mice were weighed.

[2] = tested on: CLE-typical genes in NHEK; experiment: Gene expression (RNA sequencing, KEGG pathways) in eNA-stimulated NHEK; type: cell-based, human; conditions: for Count: number of genes >2-fold downregulated: NHEK
Experimental: To analyze the functional principle and effect of JAK inhibition, the following established in vitro models of CLE were used. Immortalized keratinocytes (HaCaT), were acquired from CLS Cell Lines Service GmbH, Eppelheim, Germany), normal human epidermal keratinocytes (NHEKs, FC-0025) and Human epidermis equivalents (epiCS, CS-1001) from CellSystems, Troisdorf, Germany. These cell lines were cultured according the manufactures protocols. Cultured keratinocytes were stimulated with endogenous nucleic acids (eNA, 1.25 μg/mL) isolated from unstimulated keratinocytes using the “Genomic DNA from tissue” kit (Machery-Nagel, Dueren, Germany). Lipofectamine 2000 (Invitrogen, Carlsbad, USA) functioned as a transfection reagent (2.5 μL/mL). […] All experiments were implemented in biological triplicates. Enzyme-linked immunosorbent assays for human CXCL10 (DY266-05 R&D systems) were performed using DuoSet Ancillary Reagent Kit 2 (DY008 R&D systems) according to the supplied protocol, measured by Synergy HT Multi-Detection Multiplate Reader (BioTek, Winooski, VT, USA) and read out with Gen5 software (version 1.11.5).
To investigate the efficacy of pharmacological JAK1 inhibition, in vitro analyses in three different CLE-models were performed (i) NHEK-cells, (ii) HaCaT-cells and (iii) 3D epidermis equivalents.

[3] = target: human JAK2 (a.a. 828-1132) (Homo sapiens (Human), UniProt O60674); experiment: In vitro JAK kinase assay (HTRF), JAK2; type: biochemical; conditions: JAK2/JAK1 IC50 ratio, 1 mM ATP
[4] = tested on: JAK1-phosphorylation in HaCaT keratinocytes; experiment: JAK1-phosphorylation (anti-pJAK1 immunofluorescence) in eNA-stimulated HaCaT; type: cell-based, human; conditions: inhibitor 1 μM
[5] = target: human JAK1 (a.a. 837-1142) (Homo sapiens, UniProt P23458); experiment: In vitro JAK kinase assay (HTRF), JAK1; type: biochemical; conditions: 1 mM ATP
SLE patients = conditions: cited from earlier work

Sequence of human JAK2 (a.a. 828-1132) (O60674 828-1132): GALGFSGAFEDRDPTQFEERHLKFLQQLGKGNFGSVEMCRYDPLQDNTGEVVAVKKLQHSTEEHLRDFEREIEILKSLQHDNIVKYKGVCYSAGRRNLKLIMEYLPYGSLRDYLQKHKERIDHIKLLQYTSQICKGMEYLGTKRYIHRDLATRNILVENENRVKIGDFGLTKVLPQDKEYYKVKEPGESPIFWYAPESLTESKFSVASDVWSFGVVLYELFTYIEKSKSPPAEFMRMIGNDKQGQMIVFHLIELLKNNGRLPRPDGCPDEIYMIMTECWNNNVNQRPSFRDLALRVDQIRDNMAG

Molecule: CCS(=O)(=O)N1CC(CC#N)(n2cc(-c3ncnc4[nH]ccc34)cn2)C1 [baricitinib]
efficacy in treatment of SLE ([1]; 2 mg or 4 mg once daily for 24 weeks, vs placebo): not effective
CLASI activity score ([1]; exploratory end point): no improvement

JAK2/JAK1 [3]: >10
IC50 [5]: < 10 nM
Molecule: N#CCC1(n2cc(-c3ncnc4[nH]ccc34)cn2)CN(C2CCN(C(=O)c3ccnc(C(F)(F)F)c3F)CC2)C1 [Compound 1, {1-{1-[3-Fluoro-2-(trifluoromethyl)isonicotinoyl]piperidin-4-yl}-3-[4-(7H-pyrrolo[2,3-d]pyrimidin-4-yl)-1H-pyrazol-1-yl]azetidin-3-yl}acetonitrile]
histological features: epidermal thickness and infiltrating dermal immune cells (TREX1−/− mice): significantly improved
lesional skin regarding erythema, induration, scaling and size (TREX1−/− mice): continuously improved
lupus-skin-activity-score (adapted CLASI score) (TREX1−/− mice; compared to placebo-treated mice): significantly reduced
Count: number of genes >2-fold downregulated ([2]; Arachidonic acid metabolism hsa00590): 4
Count: number of genes >2-fold downregulated ([2]; Chemokine signalling pathway hsa04062): 5
Count: number of genes >2-fold downregulated ([2]; Cytokine-cytokine receptor interaction hsa04060): 9
Count: number of genes >2-fold downregulated ([2]; Cytosolic DNA-sensing pathway hsa04623): 3
Count: number of genes >2-fold downregulated ([2]; Ether lipid metabolism hsa00565): 3
Count: number of genes >2-fold downregulated ([2]; Linoleic acid metabolism hsa00591): 3
Count: number of genes >2-fold downregulated ([2]; Toll-like receptor signalling pathway hsa04620): 4
Count: number of genes >2-fold downregulated ([2]; alpha-Linolenic acid metabolism hsa00592): 3
downregulated expression of CLE-typical genes ([2]; eNA-stimulated NHEK, p<0.05): > 2 fold
activation of JAK1 (JAK1-phosphorylation) [4]: significantly decreased

Molecule: N#CC[C@H](C1CCCC1)n1cc(-c2ncnc3[nH]ccc23)cn1 [Ruxolitinib, (3R)-3-cyclopentyl-3-[4-(7H-pyrrolo[2,3-d]pyrimidin-4-yl)-1H-pyrazol-1-yl]propanenitrile, reference compound]
activation of JAK1 (JAK1-phosphorylation) [4]: significantly decreased

B1: anifrolumab: anti-IFNαβ-receptor antibody (antibody, chains of the INN, looked up)
heavy: EVQLVQSGAEVKKPGESLKISCKGSGYIFTNYWIAWVRQMPGKGLESMGIIYPGDSDIRYSPSFQGQVTISADKSITTAYLQWSSLKASDTAMYYCARHDIEGFDYWGRGTLVTVSSASTKGPSVFPLAPSSKSTSGGTAALGCLVKDYFPEPVTVSWNSGALTSGVHTFPAVLQSSGLYSLSSVVTVPSSSLGTQTYICNVNHKPSNTKVDKRVEPKSCDKTHTCPPCPAPEFEGGPSVFLFPPKPKDTLMISRTPEVTCVVVDVSHEDPEVKFNWYVDGVEVHNAKTKPREEQYNSTYRVVSVLTVLHQDWLNGKEYKCKVSNKALPASIEKTISKAKGQPREPQVYTLPPSREEMTKNQVSLTCLVKGFYPSDIAVEWESNGQPENNYKTTPPVLDSDGSFFLYSKLTVDKSRWQQGNVFSCSVMHEALHNHYTQKSLSLSPG
light: EIVLTQSPGTLSLSPGERATLSCRASQSVSSSFFAWYQQKPGQAPRLLIYGASSRATGIPDRLSGSGSGTDFTLTITRLEPEDFAVYYCQQYDSSAITFGQGTRLEIKRTVAAPSVFIFPPSDEQLKSGTASVVCLLNNFYPREAKVQWKVDNALQSGNSQESVTEQDSKDSTYSLSSTLTLSKADYEKHKVYACEVTHQGLSSPVTKSFNRGEC
CLASI skin score (SLE patients): significantly reduced
